# Measured values reported in patent US12551482B2, “Aurora kinase inhibitors” (The Regents of the University of California, priority 2013, dated 2026).
# Assays:
# JHH-7 = experiment: Cancer cell line profiling, Genomics of Drug Sensitivity Project; conditions: JHH7, read-out: CD532 EC50 (uM)
# phospho-histone H3 = experiment: Screen of Kelly MYCN-amplified cells, western blot for phospho-histone H3; format: cell-based; conditions: 1 μM, 24 hrs
# Experimental: (§1) Neuroblastoma tumor cell lines were obtained from the University of California San Francisco Cell Culture Facility (Kelly, SK-N-BE2, and SH-EP). SMS-KCN, SHEP MYCN^wt and MYCN^T58A/S62A cells were obtained. All cells were grown in RPMI with 10% FBS. Neuroblastoma cells were harvested and lysed with Cell Signaling Lysis buffer+1% SDS, sonicated and supernatants boiled in LDS sample buffer (Invitrogen). Western blots were performed as described previously (Chanthery et al., 2012), with primary antibodies to MYCN (ab24193, Abcam), Histone H3, P-Histone H3 (S10), Aurora A (Cell signaling), and GAPDH (Millipore). Western blot quantitation performed with ImageJ software.
# To test whether this panel of 32 putative conformation-disrupting Aurora A inhibitors would destabilize MYCN, initially Kelly MYCN-amplified neuroblastoma cells were treated with candidate inhibitors and MYCN protein was measured by western blot. Phosphorylation of Histone H3, a known substrate for Aurora A and B and a marker for mitosis, was also assessed. FIGS. 1B and 5 show decreased levels of both MYCN protein and p-Histone H3 in response to several members of the screening panel (quantitated in FIG. 1).
# OSC-20 = experiment: Cancer cell line profiling, Genomics of Drug Sensitivity Project; conditions: read-out: CD532 EC50 (uM)
# P-Histone H3 (S10) = experiment: Dose response immunoblot for phosphorylation of Histone H3 (S10) in MYCN-amplified neuroblastoma cell lines; format: cell-based; conditions: FIGS. 1D and 7
# Experimental: as §1
# LB831-BLC = experiment: Cancer cell line profiling, Genomics of Drug Sensitivity Project; conditions: read-out: CD532 EC50 (uM)
# c-MYC = c-MYC protein by immunoblot in c-MYC expressing cancer cell lines; format: cell-based
# KON = experiment: Cancer cell line profiling, Genomics of Drug Sensitivity Project; conditions: read-out: CD532 EC50 (uM)
# LS-123 = experiment: as above; conditions: Homo sapiens, LS-123, read-out: CD532 EC50 (uM)
# JHH-4 = experiment: as above; conditions: JHH-4, read-out: CD532 EC50 (uM)
# Hs, 766T = experiment: as above; conditions: Hs766T, read-out: CD532 EC50 (uM)
# SK-HEP-1 = experiment: as above; conditions: Homo sapiens, SK-HEP1, read-out: CD532 EC50 (uM)
# A101D = experiment: as above; conditions: Homo sapiens, read-out: CD532 EC50 (uM)
# NCI-H747 = experiment: as above; conditions: Homo sapiens, NCI-H747, read-out: CD532 EC50 (uM)
# SNU-61 = experiment: as above; conditions: read-out: CD532 EC50 (uM)
# IGR-37 = experiment: as above; conditions: Homo sapiens, IGR-37, read-out: CD532 EC50 (uM)
# MYCN = MYCN protein by western blot in SK-N-BE(2) cells; format: cell-based
# Experimental: as §1
# CL-11 = experiment: Cancer cell line profiling, Genomics of Drug Sensitivity Project; conditions: CL-11, read-out: CD532 EC50 (uM)
# NB13 = experiment: as above; conditions: read-out: CD532 EC50 (uM)
# 23132/87 = experiment: as above; conditions: read-out: CD532 EC50 (uM)
# MYCN-MAX = experiment: Immunoprecipitation of MYCN and immunoblot for MAX; format: cell-based; conditions: SK-N-BE(2) cells, 2 hrs
# Experimental: Pulldowns were performed with anti-N-Myc antibody (Santa Cruz, SC-53993) and Protein G sepharose beads (Sigma-Aldrich, P3296). Immunoblots were performed as described above.
# [1] = target: T1, c-MYC/Aurora A interaction (Homo sapiens, UniProt O14965); experiment: Immunoprecipitation of c-MYC and immunoblotting for Aurora A; format: cell-based; conditions: RKO colon cancer cell line
# T1 construct: endogenous in cells; host or cells: RKO colon cancer cell line
# NB17 = experiment: Cancer cell line profiling, Genomics of Drug Sensitivity Project; conditions: read-out: CD532 EC50 (uM)
# HSC-39 = experiment: as above; conditions: read-out: CD532 EC50 (uM)
# JHH-6 = experiment: as above; conditions: read-out: CD532 EC50 (uM)
# NB5 = experiment: as above; conditions: read-out: CD532 EC50 (uM)
# AsPC-1 = experiment: as above; conditions: Homo sapiens, ASPC1, read-out: CD532 EC50 (uM)
# A253 = experiment: as above; conditions: Homo sapiens, A253, read-out: CD532 EC50 (uM)
# CP50-MEL-B = experiment: as above; conditions: read-out: CD532 EC50 (uM)
# T1 sequence (O14965 whole entry): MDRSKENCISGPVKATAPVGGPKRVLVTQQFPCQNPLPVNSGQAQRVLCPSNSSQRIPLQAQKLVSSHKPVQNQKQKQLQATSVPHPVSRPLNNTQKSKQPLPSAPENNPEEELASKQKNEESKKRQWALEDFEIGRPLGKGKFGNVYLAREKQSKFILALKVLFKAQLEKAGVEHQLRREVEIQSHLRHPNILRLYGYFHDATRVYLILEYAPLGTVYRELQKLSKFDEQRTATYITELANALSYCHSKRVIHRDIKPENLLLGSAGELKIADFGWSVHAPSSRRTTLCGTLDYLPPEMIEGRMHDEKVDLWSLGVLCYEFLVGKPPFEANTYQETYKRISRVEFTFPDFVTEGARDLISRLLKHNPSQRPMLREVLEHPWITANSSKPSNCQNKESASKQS
structure (smiles),measurement,setting,value
"O=C(Nc1ccc(Nc2nccc(Nc3cc(C4CCCC4)[nH]n3)n2)cc1)Nc1cccc(C(F)(F)F)c1 [CD532, 1-(4-((4-((5-cyclopentyl-1H-pyrazol-3-yl)amino)pyrimidin-2-yl)amino)phenyl)-3-(3-(trifluoromethyl)phenyl)urea]",EC50,JHH-7,0.766 µM
same,p-Histone H3 level,phospho-histone H3,decreased levels of both MYCN and p-Histone H3 proteins
same,EC50,OSC-20,1.23 µM
same,"phosphorylation of Histone H3 at S10, dose response",P-Histone H3 (S10),behaves similarly to MLN8237 with regard to Histone H3 phosphorylation
same,EC50,LB831-BLC,1.29 µM
same,c-MYC protein,c-MYC; RKO colon cancer cell line,effects loss of c-MYC protein
same,c-MYC protein,c-MYC; SUM142 breast cancer cell line,effects loss of c-MYC protein
same,c-Myc protein,c-MYC; SUM149 (ER−/PR−) breast cancer cell line,loss of c-Myc
same,c-MYC protein,c-MYC; c-MYC-translocated ML-60 leukemia cell line,effects loss of c-MYC protein
same,EC50,KON,4.15 µM
same,EC50,LS-123,0.861 µM
same,EC50,JHH-4,1.35 µM
same,EC50,"Hs, 766T",2.45 µM
same,EC50,SK-HEP-1,1.6 µM
same,EC50,A101D,0.429 µM
same,EC50,NCI-H747,0.665 µM
same,EC50,SNU-61,1.02 µM
same,EC50,IGR-37,0.547 µM
same,time dependence of MYCN protein loss,"MYCN; 1 μM, time course (FIG. 12A)",clear and time-dependent loss of MYCN protein
same,IC50,"MYCN; FIG. 1D, read-out: IC50 for on-target MYCN knockdown",~250 nM
same,EC50,CL-11,4.93 µM
same,EC50,NB13,1.02 µM
same,EC50,23132/87,0.471 µM
same,MYCN-MAX binding,MYCN-MAX,did not affect MYCN-MAX binding
same,c-MYC association with Aurora A,[1],reduces this interaction
same,EC50,NB17,0.282 µM
same,EC50,HSC-39,0.103 µM
same,EC50,JHH-6,1.24 µM
same,EC50,NB5,0.761 µM
same,EC50,AsPC-1,5.41 µM
same,EC50,A253,24.5 µM
same,EC50,CP50-MEL-B,0.323 µM
